Results published in ChEMBL document CHEMBL1201862, “PubChem BioAssay data set” (2004).
The source made the active and inactive calls.

Legend:
[1] = test system: HEK293; assay: viability loss in HEK293T cells – cell-based, ATP luminescence, cherry-pick samples, cytotoxicity control, dose response (AID 687005); format: functional; conditions: Homo sapiens;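 note: cells exposed to compound for 48 hours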
[2] = HEK293 Cytotoxicity Assay Measured in Cell-Based System Using Plate Reader - 7071-01_Inhibitor_Dose_CherryPick_Activity_Set2.; format: functional
[3] = target: Protein Wnt-3a (Mus musculus, UniProt P27467); assay: SAR analysis of small molecule antagonists of Gli-SUFU in a Wnt3a luminescent reporter assay.; format: functional
[4] = CellTiter-Glo luminescence survival assay, SW480 colon tumor line, concentration-response curve, half-maximal inhibitory concentration (AID 1117338); format: functional
[5] = RKO cell viability reduction, dose response, CellTiter-Glo luminescence (AID 1117322); format: functional
[6] = cytotoxicity toward HCT116 cells – cell-based, CellTiter-Glo luminescence, IC50, dose response (AID 1117332); format: functional; conditions: HCT-116
[7] = SNU-C1 cell viability reduction, dose response, CellTiter-Glo luminescence (AID 1117323); format: functional, cell-based
[8] = cytotoxicity toward Colo320 cells – cell-based, CellTiter-Glo luminescence, IC50, dose response (AID 1117334); format: functional; conditions: COLO 320
[9] = cytotoxicity toward HT-29 cells – cell-based, CellTiter-Glo luminescence, IC50, dose response (AID 1117330); format: functional
[10] = Reduced DLD-1 viability, concentration-response, CellTiter-Glo luminescence (AID 1117352); format: functional
[11] = HCT116 cell viability decrease, GSK3B pretreatment – CellTiter-Glo, IC50, dose response (AID 1117339); format: functional; conditions: HCT-116
[12] = test system: HEK293; assay: EBV LMP1 TES2 canonical NF-kB signalling blockers – cell-based, HEK293, luciferase, cherry-pick, dose response (AID 588343); format: functional; conditions: Homo sapiens
[13] = target: Oxysterols receptor LXR-beta (Homo sapiens, UniProt P55055); format: functional, cell-based;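 note: Cell-based luminescence dose-response assay of agonist activity at LXR, run as a confirmatory counterscreen to a daf-12 agonist screen; HEK293 cells with Gal4-LXR fusion and GAL4-driven luciferase reporter; agonist potency from rising luciferase signal of a Gal4-LXR reporter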
[14] = cells
[15] = target: Luciferin 4-monooxygenase (Photinus pyralis, UniProt P08659); assay: Counter Screen for Luciferase-based Assay Positives. [Related pubchem assays: 620, 618, 411 ]
[16] = test system: HT-1080; assay: HT1080 cell viability loss – fluorescence readout (AID 620); format: functional, cell-based; conditions: Homo sapiens
[17] = HGIII-sPLA2 enzyme inhibition potency – biochemical, QFRET, IC50, dose response (AID 743457);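 note: green fluorescence rise as the enzyme cleaves BODIPY PC-A2 in liposomes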
[18] = rise of 2N DNA cells, HeLa – IC50, dose response (AID 1117349); format: functional, cell-based
[19] = rise of 4N DNA cells, HeLa – IC50, dose response (AID 1117351); format: functional, cell-based
[20] = Luminescence Cell-Based Dose Response HTS to Identify Inhibitors of 5'UTR Stem-Loop Driven Prion Protein mRNA Translation in H4 Neuroglioblastoma Cells. [Related pubchem assays: 1827 (Project Summary), 1813 (Primary HTS)]; format: functional
[21] = alpha-synuclein stem-loop luciferase translation blockers – H4 neuroglioma cells, luminescence, confirmation (AID 1988); format: functional, cell-based
[22] = A549 cell cytotoxicity, dose response, cytotoxicity control, plate reader, cherry-pick, antagonist series (AID 743412); format: functional, cell-based
[23] = toxicity toward HepG2 liver cells – cell-based, plate reader, cherry-pick, antagonist series, cytotoxicity control, dose response (AID 743416); format: functional
[24] = blockers of bursicon-stimulated LGR2 cAMP reporter – cell-based, HEK293, CRE-luciferase reporter, cherry pick, set 2, dose response (AID 743343); format: functional;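 note: transfected cells were stimulated with diluted bursicon conditioned medium after compound addition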
[25] = blockade of melanocortin 4 receptor signaling – cell-based, plate reader, cherry pick, counter-screen for LGR2 antagonist project, dose response (AID 743444); format: functional;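 note: transfected HEK 293 cells stimulated with alpha-MSH peptide; potency of inhibitors of the alpha-MSH evoked signal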
[26] = viability loss in HEK293 cells – cell-based, plate reader, cherry-picked samples, cytotoxicity control, dose response (AID 743446); format: functional
[27] = T. cruzi growth inhibition in host cells, dose response, cell-based, plate reader, dry powder, set 2 (AID 652275); format: functional
[28] = viability of uninfected HEp-2 cells – cell-based, HTS, cytotoxicity control for RSV inhibitor project, dose response (AID 2410); format: functional; conditions: human respiratory syncytial virus
[29] = test system: Streptococcus sp. 'group A'; assay: Streptococcus pyogenes SK(-)GAS viability under kanamycin – luminescence, BacTiterGlo, confirmation, counter-screen for streptokinase expression inhibitor project, dose response (AID 1900); format: functional, organism-based
[30] = target: T1, Heat shock factor protein 1 (Mus musculus, UniProt P38532); assay: decrease of HSF1-responsive luciferase luminescence – cell-based, NIH3T3, dose retest, confirmation (AID 2382); format: functional;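 note: NIH3T3 fibroblasts with HSF1-driven luciferase reporter stressed by proteasome inhibitor MG132; luminescence from HSF1-driven luciferase expression after 8 hours of MG132 stress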
T1 sequence (P38532 whole entry): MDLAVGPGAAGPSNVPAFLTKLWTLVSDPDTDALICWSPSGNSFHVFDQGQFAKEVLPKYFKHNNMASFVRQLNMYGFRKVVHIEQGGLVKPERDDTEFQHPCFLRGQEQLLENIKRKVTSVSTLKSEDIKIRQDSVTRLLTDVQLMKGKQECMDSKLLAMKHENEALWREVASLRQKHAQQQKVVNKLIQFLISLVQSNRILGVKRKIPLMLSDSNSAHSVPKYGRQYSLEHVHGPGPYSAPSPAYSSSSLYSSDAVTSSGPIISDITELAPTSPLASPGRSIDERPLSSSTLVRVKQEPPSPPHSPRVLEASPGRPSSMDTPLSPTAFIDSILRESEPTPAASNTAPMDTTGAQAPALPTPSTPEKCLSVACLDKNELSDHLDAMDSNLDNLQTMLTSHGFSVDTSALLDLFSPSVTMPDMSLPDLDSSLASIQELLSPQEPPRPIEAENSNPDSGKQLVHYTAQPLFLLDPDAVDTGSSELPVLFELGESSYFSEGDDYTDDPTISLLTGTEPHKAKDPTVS

[31] = target: T2, Streptokinase A (Streptococcus pyogenes serotype M1, UniProt P10520); assay: viability-normalized secreted streptokinase activity reduction – plasminogen activation absorbance, OD405, dose response (AID 1914); format: functional, Streptococcus pyogenes M1 GAS;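 note: secreted streptokinase activity via plasminogen activation per viability signal from cell pellet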
T2 sequence (P10520 whole entry): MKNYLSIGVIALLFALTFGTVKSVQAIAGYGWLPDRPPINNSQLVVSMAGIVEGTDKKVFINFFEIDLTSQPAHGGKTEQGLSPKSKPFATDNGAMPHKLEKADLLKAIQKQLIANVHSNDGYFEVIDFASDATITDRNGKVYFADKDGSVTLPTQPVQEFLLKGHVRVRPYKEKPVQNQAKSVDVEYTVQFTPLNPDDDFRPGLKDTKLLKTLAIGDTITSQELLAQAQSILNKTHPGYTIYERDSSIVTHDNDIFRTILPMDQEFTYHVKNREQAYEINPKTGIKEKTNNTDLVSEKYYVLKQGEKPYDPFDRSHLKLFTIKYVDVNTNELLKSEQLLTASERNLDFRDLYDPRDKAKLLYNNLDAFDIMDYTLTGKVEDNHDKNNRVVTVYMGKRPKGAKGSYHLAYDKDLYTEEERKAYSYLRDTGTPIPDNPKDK

[32] = test system: Streptococcus; assay: GAS UMAA2166 growth inhibition – luminescence, BacTiterGlo, counter-screen for streptokinase expression inhibitor project, dose response (AID 1915); format: functional, organism-based;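 note: potency for reduction of bacterial viability or growth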
[33] = Luminescence Cell-Based Dose Retest to Confirm Inhibitors of Cancer Stem Cells. [Related pubchem assays (depositor defined):AID2717, AID2721]; format: functional; conditions: Homo sapiens
[34] = target: Major prion protein (Homo sapiens, UniProt P04156); format: functional, cell-based
[35] = cells; remark: listed apart in the source

In the case of `C[C@H](CO)N1C[C@H](C)[C@H](CN(C)Cc2ccc(Cl)c(Cl)c2)Oc2c(NC(=O)Nc3ccccc3)cccc2C1=O`, the AC50 [1] is reported as 18.8 µM (active) and the AC50 [2] is reported as 18.8 µM (active).

With `O=C(Nc1cc(N2CCCCC2)ncn1)c1ccccc1` the IC50 [3] was > 21.8 µM (inactive).

In the case of `CCN(CC)C(=O)c1cccnc1` [NIKETHAMIDE], the IC50 [4] is reported as > 20 µM (inactive), the IC50 [5] is reported as > 20 µM (inactive) and the IC50 [6] is reported as > 20 µM (inactive). The IC50 [7] was > 20 µM (inactive), the IC50 [8] was > 20 µM (inactive) and the IC50 [9] was > 20 µM (inactive). For the same molecule, the IC50 [10] was > 20 µM (inactive) and the IC50 [11] was > 20 µM (inactive).

For `Cc1ccc(C2=NN(C(=O)c3ccc(Br)o3)C(c3ccc(C)cc3)C2)cc1` (stereo unspecified), the AC50 [1] was 20.2 µM (active) and the AC50 [2] was 20.2 µM (active).

For `COc1ccc(-n2nc(CCC(=O)N(C)O)cc2-c2ccc(Cl)cc2)cc1` [TEPOXALIN], the IC50 [4] was 2.81 µM (active), the IC50 [5] was 4.11 µM (active) and the IC50 [6] was 6.55 µM (inactive). For the same molecule, the IC50 [7] was 1.75 µM (active), the IC50 [8] was 0.662 µM (active) and the IC50 [10] was 2.08 µM (active).

In the case of `c1ccc(-c2nnc(-c3ccccn3)s2)nc1`, the AC50 [12] is reported as 4.63 µM (active), the EC50 [13] is reported as > 67.5 µM (inactive) and the EC50 [14] is reported as > 67.5 µM (inactive).

For `Cc1ccc2nc(-c3cc(N)cc(N)c3)oc2c1`, the EC50 [15] was 1.01 µM (active), the EC50 [16] was > 50 µM (not active) and the IC50 [17] was > 122 µM (inactive).

With `CCCN(CCC)C(=O)C(CCC(=O)OCCCN1CCN(CCOC(=O)Cc2c(C)n(C(=O)c3ccc(Cl)cc3)c3ccc(OC)cc23)CC1)NC(=O)c1ccccc1` (stereo unspecified) [PROGLUMETACIN] the IC50 [18] was > 10 µM (inactive) and the IC50 [19] was > 10 µM (inactive).

With `Cc1ccc(CSc2nc3cc[nH]cc-3n2)cc1` the EC50 [20] was 10.8 µM (active), the EC50 [21] was 7.38 µM (active) and the AC50 [12] was 1.9 µM (active). The AC50 [22] was 26.5 µM (active), the AC50 [23] was 31.6 µM (active) and the AC50 [24] was 2.93 µM (active). The AC50 [25] was 2.98 µM (active), the EC50 [13] was > 67.5 µM (inactive) and the AC50 [26] was > 52 µM (inactive). For the same molecule, the EC50 [14] was > 67.5 µM (inactive).

With `O=C(Cc1ccccn1)N1CCCCN2[C@@H](CO)[C@H](c3ccc(Br)cc3)[C@@H]2C1` the AC50 [27] was 2.31 µM (active).

For `OC(COc1ccc2ccccc2c1Br)Cn1cnc(-c2ccccc2)c1` (stereo unspecified), the CC50 [28] was 9.42 µM (active), the EC50 [29] was 6.29 µM (active) and the EC50 [30] was > 195 µM (not active). The EC50 [31] was 9.22 µM (active), the EC50 [32] was 21.7 µM (active) and the AC50 [33] was 5.02 µM (active). The IC50 [34] was 4.17 µM (active) and the IC50 [35] was > 138 µM (inactive).
